Results: US20250332173A1, “COMPOUNDS AND METHODS FOR MODULATING NUCLEIC ACID SPLICING” (REMIX THERAPEUTICS INC., priority 2021, published 2025)
pIC50: −log10 of the molar value. Read-outs that look alike come from different tables or passages of the source.

Assays:
HTT mRNA = assay: RT-qPCR splicing assay, HTT canonical junction (CJ) and alternative junction (AJ) mRNA; format: cell-based, human; details: Homo sapiens; for AC50: increase in HTT alternative junction (AJ) mRNA, read-out: HTT AJ AC50
Method in brief: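 A673 or K562 cells were treated for 24 h at 37 °C with an 11-point 3-fold compound dilution series (top final concentration 10 uM, DMSO ≤0.25%). After lysis, one-step TaqMan RT-qPCR quantified junction transcripts, normalized to PPIA for A673 or to GAPDH/GUSB for K562.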

[1] = system: K562 (human chronic myelogenous leukemia) cells; assay: Cell Titer Glo 2.0 cell viability assay; format: cell-based; details: Homo sapiens, K562, 72 h, K562 cells, 72 hours, Cell Titer Glo 2.0; read-out: K562 GI50
Description: Compounds described herein were screened for toxicity in K562 (human chronic myelogenous leukemia) cells using a Cell Titer Glo 2.0 assay.
Cells were plated at 500 cells/well (K562 cells) in 45 μL of IMDM supplemented with 1000 FBS in a 384-well opaque plate. Wells containing only medium were used as a blank control. Test compounds (e.g., compounds ofFormula (I), (II), (III), (IV), (V), (VI), (VII), (VIII), and (IX)) were first serially diluted in DMSO then diluted 1:100 with IMDM+10% FBS. The final concentration of DMSO was 0.1% in each well. The cells were incubated for 72 hours at 37° C. and 500 CO2 before assaying with Cell Titer Glo 2.0 reagent.

[2] = decrease in HTT canonical junction (CJ) mRNA, RT-qPCR, read-out: HTT CJ IC50
[3] = canonical junction qPCR panel, Table 5, read-out: HTT (decrease in CJ mRNA levels, IC50)
[4] = Table 5 panel, canonical junction qPCR, compound concentration having 50% response in CJ decrease, read-out: HTT IC50 (decrease in CJ mRNA levels)

pIC50 (HTT mRNA; [2]) | pIC50 (HTT mRNA; [3]) | GI50 [1] [nM] | pIC50 (HTT mRNA; [4]) | Structure (SMILES) | AC50 (HTT mRNA; RT-qPCR) [nM]
5.00 to 6.00 | 5.00 to 6.00 | 100 to 1000 |  | Cc1c(O)c(-c2ncc3c(=O)n([C@@H]4CC5CC4CN5)ccc3n2)cc2cn(C)nc12 (stereo in doubt) [Compound 1443, 6-[(1R,4R,5R)-2-azabicyclo[2.2.1]heptan-5-yl]-2-(6-hydroxy-2,7-dimethyl-indazol-5-yl)pyrido[4,3-d]pyrimidin-5-one] | 1000 to 10000
6.00 to 7.00 |  | 100 to 1000 | 6.00 to 7.00 | Cc1cn2cc(-c3cc4ccn(C5CCNCC5)c(=O)c4cn3)nc(C)c2n1 [Compound 1205, 6-(2,8-dimethylimidazo[1,2-a]pyrazin-6-yl)-2-(piperidin-4-yl)-2,7-naphthyridin-1(2H)-one] | 100 to 1000
< 5.00 |  | 1000 to 10000 | < 5.00 | Cc1cn2cc(-c3cc4ccn(C5CCNC5)c(=O)c4cn3)cc(C#N)c2n1 (centres unmarked) [Compound 1214] | > 10000
6.00 to 7.00 |  | 100 to 1000 | 6.00 to 7.00 | Cn1cc2cc(-c3ncc4c(=O)n(C5CCNCC5)ccc4n3)cc(F)c2n1 [Compound 1212, 2-(7-fluoro-2-methyl-2H-indazol-5-yl)-6-(piperidin-4-yl)pyrido[4,3-d]pyrimidin-5(6H)-one] | 100 to 1000
< 5.00 | < 5.00 | 1000 to 10000 |  | Cc1cn2cc(-c3ccc4c(=O)n(C5CCNC5)ccc4n3)cc(F)c2n1 (centres unmarked) [Compound 1299] | > 10000
6.00 to 7.00 |  | < 100 | 6.00 to 7.00 | Cn1cc2cc(-c3ncc4c(=O)n(C5CCNCC5)ccc4n3)c(O)cc2n1 [Compound 1211] | 100 to 1000
< 5.00 |  | > 10000 | < 5.00 | CN1CCC(Nc2ccc3c(=O)n(-c4ccc5cn(C)nc5c4)cnc3c2)CC1 [Compound 203] | > 10000

More lines, now with the values behind:

Structure (SMILES) | pIC50 (HTT mRNA; [2]) | pIC50 (HTT mRNA; [3]) | GI50 [1] [nM] | pIC50 (HTT mRNA; [4]) | AC50 (HTT mRNA; RT-qPCR) [nM]
Cc1cn2cc(-c3ccc4c(=O)n(C5CCNCC5)ccc4n3)nc(C)c2n1 [Compound 1238, 2-(2,8-dimethylimidazo[1,2-a]pyrazin-6-yl)-6-(piperidin-4-yl)-1,6-naphthyridin-5(6H)-one] | < 5.00 | < 5.00 | > 10000 |  | > 10000
Cc1cn2cc(-c3ncc4c(=O)n([C@@H]5CCNC5)ccc4n3)cc(F)c2n1 [Compound 1228] | < 5.00 |  | 1000 to 10000 | < 5.00 | > 10000
Cc1c(O)c(-c2ncc3c(=O)n(C4CCNC4)ccc3n2)cc2cn(C)nc12 (stereo in doubt) [Compound 1439, (6R)-2-(6-hydroxy-2,7-dimethyl-indazol-5-yl)-6-pyrrolidin-3-yl-pyrido[4,3-d]pyrimidin-5-one] | < 5.00 | 5.00 to 6.00 | 100 to 1000 |  | 1000 to 10000
Cn1cc2cc(-c3ncc4c(=O)n(C5CCNC5)ccc4n3)c(O)c(F)c2n1 (centres unmarked) [Compound 1223] | 5.00 to 6.00 |  | 1000 to 10000 | 5.00 to 6.00 | 1000 to 10000
Cn1cc2ccc(-n3cnc4cc(NC5CCNCC5)ccc4c3=O)cc2n1 [Compound 204] | < 5.00 |  | > 10000 | < 5.00 | > 10000
Cc1cn2cc(-c3ccc4c(=O)n(C5CCNCC5)ccc4n3)c(O)cc2n1 [Compound 1240] | < 5.00 | < 5.00 | 1000 to 10000 |  | > 10000
Cc1c(O)c(-c2ncc3c(=O)n([C@@H]4C[C@@H](C)N[C@@H](C)C4)ccc3n2)cc2cn(C)nc12 [Compound 1453, 6-[(2S,6R)-2,6-dimethyl-4-piperidyl]-2-(6-hydroxy-2,7-dimethyl-indazol-5-yl)pyrido[4,3-d]pyrimidin-5-one] | < 5.00 | 5.00 to 6.00 | 100 to 1000 |  | 1000 to 10000
Cc1cc(-c2cc3ccn(C4CCN(C5CC5)CC4)c(=O)c3cn2)cc2cn(C)nc12 [Compound 1208, 2-(1-cyclopropylpiperidin-4-yl)-6-(2,7-dimethyl-2H-indazol-5-yl)-2,7-naphthyridin-1(2H)-one] | < 5.00 |  | > 10000 | < 5.00 | > 10000
Cc1cc(-c2cc3ccn(C4CCN(C5COC5)CC4)c(=O)c3cn2)cc2cn(C)nc12 [Compound 1209, 6-(2,7-dimethyl-2H-indazol-5-yl)-2-(1-(oxetan-3-yl)piperidin-4-yl)-2,7-naphthyridin-1(2H)-one-1] | 6.00 to 7.00 |  | 100 to 1000 | 6.00 to 7.00 | 100 to 1000
Cc1cc(-c2cc3ccn(C4CCN(CCO)CC4)c(=O)c3cn2)cc2cn(C)nc12 [Compound 1210, 6-(2.7-dimethyl-2H-indazol-5-yl)-2-(1-(2-hydroxyethyl)piperidin-4-yl)-2,7-naphthyridin-1(2H)-one] | < 5.00 |  | 1000 to 10000 | < 5.00 | > 10000
